The values that follow come from patent US9821062B2, “Cyanine dye compound and preparation method therefor, and dual-function agent for photodynamic therapy and preparation method therefor” (ZHEJIANG HISUN PHARMACEUTICAL CO., LTD., priority 2012, dated 2017).

The data set is described as follows: Ultraviolet spectroscopy detection: long-wavelength absorption peak, fluorescence, Stokes shift. In kind it is physicochemical. An excerpt:
Electronic absorption spectra for the compounds are shown in FIG. 1, from which it can be seen that, all the compounds having a structure shown in formula VIII, formula IX, formula III, formula IV, formula V, and formula XVII provided according to the present invention show a strong long-wavelength absorption peak between 750 nm and 860 nm, and have an obvious Stokes shift between 37 nm and 41 nm.

Regarding `CC1(C)C(/C=C/C2=C(Sc3ccc(C(=O)O)cc3)C(=C/C=C3/N(CCCCS(=O)(=O)O)c4ccc5ccccc5c4C3(C)C)/CCC2)=[N+](CCCCS(=O)(=O)O)c2ccc3ccccc3c21` [Formula IX], the Fluorescence was found to be 876 nm and the Stokes shift stood at 39 nm. Moreover, the Absorption peak (long-wavelength absorption peak) is recorded as 837 nm.
